Usually inhibition stands for the drop in the measured response relative to a control, in per cent. A low value points to little suppression.

Molecules are shown by their SMILES.

The results in this text go back to patent US10968222B2, “2-azabicyclo hexane JAK inhibitor compound” (THERAVANCE BIOPHARMA R&D IP, LLC, priority 2018, dated 2021).

The target in one assay is T1, ALK (Homo sapiens, UniProt Q9UM73).
T1 construct: made in house; host or cells: E. coli BL21-derived host (T7 phage) or HEK-293 cells
T1 sequence (Q9UM73 19-1620): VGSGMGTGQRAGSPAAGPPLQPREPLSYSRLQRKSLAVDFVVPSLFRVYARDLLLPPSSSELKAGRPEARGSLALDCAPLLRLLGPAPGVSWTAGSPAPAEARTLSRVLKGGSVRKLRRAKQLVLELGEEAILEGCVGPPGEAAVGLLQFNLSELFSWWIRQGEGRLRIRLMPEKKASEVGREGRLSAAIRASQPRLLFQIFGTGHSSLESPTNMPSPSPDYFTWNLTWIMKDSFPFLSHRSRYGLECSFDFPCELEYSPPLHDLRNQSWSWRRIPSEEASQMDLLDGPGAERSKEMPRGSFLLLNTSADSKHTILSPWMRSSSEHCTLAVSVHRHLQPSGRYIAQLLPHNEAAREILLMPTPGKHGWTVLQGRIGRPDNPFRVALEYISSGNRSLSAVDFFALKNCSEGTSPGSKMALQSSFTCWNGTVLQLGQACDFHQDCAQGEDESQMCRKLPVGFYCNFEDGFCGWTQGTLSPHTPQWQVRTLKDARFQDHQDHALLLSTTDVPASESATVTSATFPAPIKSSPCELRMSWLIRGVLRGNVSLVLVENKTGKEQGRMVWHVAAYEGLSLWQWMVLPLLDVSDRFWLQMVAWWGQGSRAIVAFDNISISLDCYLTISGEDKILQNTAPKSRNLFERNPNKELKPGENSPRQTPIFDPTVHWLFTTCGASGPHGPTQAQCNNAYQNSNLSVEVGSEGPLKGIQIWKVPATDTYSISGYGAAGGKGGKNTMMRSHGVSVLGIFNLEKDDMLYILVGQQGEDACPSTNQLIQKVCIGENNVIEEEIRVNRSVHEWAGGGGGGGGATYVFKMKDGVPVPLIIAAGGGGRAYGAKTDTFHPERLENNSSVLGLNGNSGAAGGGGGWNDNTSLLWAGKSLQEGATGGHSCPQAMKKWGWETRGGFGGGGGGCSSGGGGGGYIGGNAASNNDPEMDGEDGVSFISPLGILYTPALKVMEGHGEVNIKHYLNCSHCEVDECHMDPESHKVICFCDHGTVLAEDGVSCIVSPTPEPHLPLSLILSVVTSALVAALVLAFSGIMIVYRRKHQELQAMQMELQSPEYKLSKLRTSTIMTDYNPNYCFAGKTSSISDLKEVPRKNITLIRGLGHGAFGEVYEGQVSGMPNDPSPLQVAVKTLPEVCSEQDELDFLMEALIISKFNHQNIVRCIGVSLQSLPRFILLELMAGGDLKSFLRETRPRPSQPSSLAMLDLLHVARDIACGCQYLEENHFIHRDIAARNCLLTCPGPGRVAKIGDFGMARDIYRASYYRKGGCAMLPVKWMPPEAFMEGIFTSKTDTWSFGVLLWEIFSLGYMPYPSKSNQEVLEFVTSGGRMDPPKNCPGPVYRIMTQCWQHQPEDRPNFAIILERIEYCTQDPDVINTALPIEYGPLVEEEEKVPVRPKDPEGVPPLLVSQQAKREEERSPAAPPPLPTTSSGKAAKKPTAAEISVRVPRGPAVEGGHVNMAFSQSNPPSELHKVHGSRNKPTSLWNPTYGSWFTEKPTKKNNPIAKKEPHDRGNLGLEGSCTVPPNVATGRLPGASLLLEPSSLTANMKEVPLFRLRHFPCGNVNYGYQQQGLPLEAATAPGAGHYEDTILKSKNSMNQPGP
The assay is described as follows: Kinome screen, ALK. It is filed as binding. To be noted: screened at 1 μM. As to the method: Compounds 1 and C-1 were screened against other kinases to evaluate their selectivity profile.
Kinase-tagged T7 phage strains were grown in parallel in 24-well blocks in an E. coli host derived from the BL21 strain. E. coli were grown to log-phase and infected with T7 phage from a frozen stock (multiplicity of infection=0.4) and incubated with shaking at 32° C. until lysis (90-150 minutes). The lysates were centrifuged (6,000×g) and filtered (0.2 μm) to remove cell debris. The remaining kinases were produced in HEK-293 cells and subsequently tagged with DNA for qPCR detection.
Streptavidin-coated magnetic beads were treated with biotinylated small molecule ligands for 30 minutes at room temperature to generate affinity resins for kinase assays. The liganded beads were blocked with excess biotin and washed with blocking buffer (SeaBlock (Pierce), 1% BSA, 0.05% Tween 20, 1 mM DTT) to remove unbound ligand and to reduce non-specific phage binding. Binding reactions were assembled by combining kinases, liganded affinity beads, and test compounds in 1× binding buffer (20% SeaBlock, 0.17×PBS, 0.05% Tween 20, 6 mM DTT). Test compounds were prepared as 40× stocks in 100% DMSO and directly diluted into the assay. All reactions were performed in polypropylene 384-well plates in a final volume of 0.04 ml. […] The kinase concentration in the eluates was measured by qPCR. […]

Assay [1] deals with IL-13 induced STAT6 phosphorylation in BEAS-2B human lung epithelial cells. The assay is described as follows: Inhibition of IL-13 stimulated pSTAT6 in BEAS-2B cells. It is filed as cell-based. To be noted: AlphaScreen, read-out: pIC50, inhibition of IL-13 stimulated pSTAT6 (converted). The protocol:
The AlphaScreen JAKI cellular potency assay was carried out by measuring interleukin-13 (IL-13, R&D Systems) induced STAT6 phosphorylation in BEAS-2B human lung epithelial cells (ATCC). The anti-STAT6 antibody (Cell Signaling Technologies) was conjugated to AlphaScreen acceptor beads (Perkin Elmer), while the anti-pSTAT6 (pTyr641) antibody (Cell Signaling Technologies) was biotinylated using EZ-Link Sulfo-NHS-Biotin (Thermo Scientific).
BEAS-2B cells were grown at 37° C. in a 5% CO2 humidified incubator in 50% DMEM/50% F-12 medium (Life Technologies) supplemented with 10% FBS (Hyclone), 100 U/mL penicillin, 100 μg/mL streptomycin (Life Technologies), and 2 mM GlutaMAX (Life Technologies). On day 1 of the assay, cells were seeded at a 7,500 cells/well density in white poly-D-lysine-coated 384-well plates (Corning) with 25 μL medium, and were allowed to adhere overnight in the incubator. […] After a minimum of 2 h incubation, the assay plates were read on the EnVision plate reader. AlphaScreen luminescence signals were recorded and utilized to calculate the percent inhibition values based on DMSO and background controls.
For dose-response analysis, percent inhibition data were plotted vs. compound concentrations, and IC50 values were determined from a 4-parameter robust fit model with the Prism software. Results may also be expressed as the negative logarithm of the IC50 value, pIC50.
A general note: In Alpha technology, singlet oxygen from a donor bead excites a nearby acceptor bead.

Turning to `CCc1cc(O)c(F)cc1-c1cc(F)c2c(-c3nc4c([nH]3)CCN(C(=O)[C@]35C[C@H]3CCN5)C4)n[nH]c2c1` [Compound 1, (1S,5R)-2-azabicyclo[3.1.0]hexan-1-yl(2-(6-(2-ethyl-5-fluoro-4-hydroxyphenyl)-4-fluoro-1H-indazol-3-yl)-6,7-dihydro-3H-imidazo[4,5-c]pyridin-5(4H)-yl)methanone], at 1 µM the inhibition against ALK was 79%. Also, the IC50 in assay [1] is 10 nM.
